Test results: the NIST ThermoML archive (doi:10.1016/j.jct.2019.02.025)
Numbers after ± are expanded uncertainties.

Key:
[1] = for mass density / kinematic viscosity: 101.33 kPa, Liquid; for mass density: Vibrating tube method; for surface tension liquid-gas / kinematic viscosity: Surface laser light scattering (SLLS)
[2] = refractive index (Na D-line) (dimensionless); conditions: 101.33 kPa, Liquid, Standard Abbe refractometry

CCCCCCCCCCCC(=O)OC [methyl dodecanoate]
Conditions	kinematic viscosity [m2/s]	mass density [kg/m3]	refractive index	surface tension liquid-gas [mN/m]
[1], 293.15 K	–	869.26 ± 1.7	–	–
[1], 298.14 K	2.81e-06 ± 1.6e-07	–	–	23.49 ± 1.1
[1], 303.15 K	–	861.25 ± 1.7	–	–
[1], 313.15 K	–	853.32 ± 1.7	–	–
[1], 323.15 K	–	845.42 ± 1.7	–	–
[1], 323.16 K	1.9e-06 ± 7.6e-08	–	–	22.02 ± 0.79
[1], 333.15 K	–	837.53 ± 1.7	–	–
[1], 343.15 K	–	829.63 ± 1.7	–	–
[1], 348.15 K	1.44e-06 ± 4.3e-08	–	–	21.12 ± 0.27
[1], 353.15 K	–	820.84 ± 1.6	–	–
[1], 363.15 K	–	813.94 ± 1.6	–	–
[1], 373.15 K	–	806.11 ± 1.6	–	–
[1], 373.17 K	1.14e-06 ± 3.4e-08	–	–	19.82 ± 0.38
[1], 383.15 K	–	798.22 ± 1.6	–	–
[1], 393.15 K	–	790.34 ± 1.6	–	–
[1], 398.27 K	9.1e-07 ± 3.2e-08	–	–	18.66 ± 0.26
[1], 403.15 K	–	782.4 ± 1.6	–	–
[1], 413.15 K	–	774.39 ± 1.6	–	–
[1], 423.15 K	–	766.34 ± 1.5	–	–
[1], 423.25 K	7.36e-07 ± 2.7e-08	–	–	17.48 ± 0.12
[1], 433.15 K	–	758.26 ± 1.5	–	–
[1], 443.15 K	–	750.06 ± 1.5	–	–
[1], 448.25 K	5.99e-07 ± 2.2e-08	–	–	15.99 ± 0.09
[1], 453.15 K	–	741.94 ± 1.5	–	–
[2], 278.15 K	–	–	1.43836 ± 0.0005	–
[2], 283.15 K	–	–	1.43629 ± 0.0005	–
[2], 288.15 K	–	–	1.43422 ± 0.0005	–
[2], 293.15 K	–	–	1.43216 ± 0.0005	–
[2], 298.15 K	–	–	1.43009 ± 0.0005	–
[2], 303.15 K	–	–	1.42802 ± 0.0005	–
[2], 308.15 K	–	–	1.42594 ± 0.0005	–
[2], 313.15 K	–	–	1.42383 ± 0.0005	–
[2], 318.15 K	–	–	1.42171 ± 0.0005	–
[2], 323.15 K	–	–	1.41959 ± 0.0005	–
[2], 328.15 K	–	–	1.4175 ± 0.0005	–
[2], 333.15 K	–	–	1.41542 ± 0.0005	–
[2], 338.15 K	–	–	1.41334 ± 0.0005	–
[2], 343.15 K	–	–	1.41127 ± 0.0005	–
[2], 348.15 K	–	–	1.40922 ± 0.0005	–
[2], 353.15 K	–	–	1.40717 ± 0.0005	–
[2], 358.15 K	–	–	1.40513 ± 0.0005	–

CCCCCCCCCCCC(=O)OCC [ethyl dodecanoate]
Conditions	kinematic viscosity [m2/s]	mass density [kg/m3]	refractive index	surface tension liquid-gas [mN/m]
[1], 293.15 K	–	862 ± 1.7	–	–
[1], 298.03 K	3.11e-06 ± 1.1e-07	–	–	26.84 ± 0.88
[1], 303.15 K	–	853.15 ± 1.7	–	–
[1], 313.15 K	–	845.31 ± 1.7	–	–
[1], 323.15 K	1.98e-06 ± 7.7e-08	838.31 ± 1.7	–	24.54 ± 0.35
[1], 333.15 K	–	830.53 ± 1.7	–	–
[1], 343.15 K	–	822.74 ± 1.6	–	–
[1], 348.25 K	1.44e-06 ± 6.9e-08	–	–	22.85 ± 0.51
[1], 353.15 K	–	814.95 ± 1.6	–	–
[1], 363.15 K	–	807.16 ± 1.6	–	–
[1], 373.15 K	–	799.37 ± 1.6	–	–
[1], 373.4 K	1.09e-06 ± 3.6e-08	–	–	21.17 ± 0.2
[1], 383.15 K	–	791.55 ± 1.6	–	–
[1], 393.15 K	–	783.72 ± 1.6	–	–
[1], 398.14 K	8.72e-07 ± 2.8e-08	–	–	19.32 ± 0.12
[1], 403.15 K	–	775.85 ± 1.6	–	–
[1], 413.15 K	–	767.94 ± 1.5	–	–
[1], 423.13 K	7.19e-07 ± 2.6e-08	–	–	17.83 ± 0.13
[1], 423.15 K	–	759.99 ± 1.5	–	–
[1], 433.15 K	–	751.6 ± 1.5	–	–
[1], 443.15 K	–	744.05 ± 1.5	–	–
[1], 448.22 K	5.91e-07 ± 2.2e-08	–	–	15.95 ± 0.22
[1], 453.15 K	–	735.97 ± 1.5	–	–
[2], 278.15 K	–	–	1.43791 ± 0.00051	–
[2], 283.15 K	–	–	1.43583 ± 0.00051	–
[2], 288.15 K	–	–	1.43375 ± 0.00051	–
[2], 293.15 K	–	–	1.43169 ± 0.00051	–
[2], 298.15 K	–	–	1.42961 ± 0.00051	–
[2], 303.15 K	–	–	1.42755 ± 0.00051	–
[2], 308.15 K	–	–	1.42547 ± 0.00051	–
[2], 313.15 K	–	–	1.42335 ± 0.00051	–
[2], 318.15 K	–	–	1.42125 ± 0.00051	–
[2], 323.15 K	–	–	1.41915 ± 0.00051	–
[2], 328.15 K	–	–	1.41707 ± 0.00051	–
[2], 333.15 K	–	–	1.41501 ± 0.00051	–
[2], 338.15 K	–	–	1.41295 ± 0.00051	–
[2], 343.15 K	–	–	1.4109 ± 0.00051	–
[2], 348.15 K	–	–	1.40886 ± 0.00051	–
[2], 353.15 K	–	–	1.40684 ± 0.00051	–
[2], 358.15 K	–	–	1.40479 ± 0.00051	–
